In patent US7829665B2 (priority 2005, dated 2010):
pIC50: −log10 of the molar value.

Biological target: T1, full-length NS3/NS4A-2 (HCV NS3 protease) (Hepatitis C virus genotype 1a, UniProt P27958)
T1 construct: Recombinant E. coli or Baculovirus full-length NS3 was diluted to 3.33 μM with assay buffer; made in house; host or cells: E. coli or baculovirus (BV) expression system
Assay: NS3-NS4 protease assay / NS3 inhibition assay (RETS1 substrate, fluorescence kinetic read)
Assay type: biochemical
Conditions: recombinant E. coli or Baculovirus full-length NS3 with NS4A-2; read-out: NS3-NS4 IC50
Method in brief: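 Ki values come from IC50 fits corrected via Ki=IC50/(1+[S]/Km), with Km 2.03 μM for E. coli and 1.74 μM for baculovirus full-length NS3. Enzyme (2 or 3 nM NS3, respectively, complexed with NS4A-2) sat with compound, top concentration 50 microM, for 10 min at room temperature. Cleavage of RETS1 (8 μM working solution) was then followed by fluorescence (335/495 nm) over 30 min.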

T1 sequence (P27958 1027-1657): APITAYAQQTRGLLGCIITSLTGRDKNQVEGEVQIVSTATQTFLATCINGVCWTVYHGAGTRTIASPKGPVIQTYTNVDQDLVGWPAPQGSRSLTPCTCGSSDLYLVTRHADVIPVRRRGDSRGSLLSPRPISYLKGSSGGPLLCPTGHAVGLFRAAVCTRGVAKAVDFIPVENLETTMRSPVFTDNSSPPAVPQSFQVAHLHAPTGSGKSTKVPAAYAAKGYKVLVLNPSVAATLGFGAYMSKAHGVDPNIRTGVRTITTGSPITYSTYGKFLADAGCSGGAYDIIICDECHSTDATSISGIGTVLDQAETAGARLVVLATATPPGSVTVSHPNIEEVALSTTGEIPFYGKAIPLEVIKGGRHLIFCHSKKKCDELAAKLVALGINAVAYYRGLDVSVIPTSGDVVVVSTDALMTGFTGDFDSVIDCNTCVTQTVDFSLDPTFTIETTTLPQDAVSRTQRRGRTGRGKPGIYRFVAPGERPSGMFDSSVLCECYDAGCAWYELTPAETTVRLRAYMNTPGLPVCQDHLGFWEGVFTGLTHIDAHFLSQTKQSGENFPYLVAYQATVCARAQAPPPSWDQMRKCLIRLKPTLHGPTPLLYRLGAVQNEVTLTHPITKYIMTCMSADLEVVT

CC(C)(C)OC(=O)N[C@H]1CCCCC/C=C\[C@@H]2C[C@@]2(C(=O)NS(=O)(=O)NCc2ccncc2)NC(=O)[C@@H]2CCCN2C1=O [Compound 426]
pIC50: < 5.00

CCOC(=O)[C@@]12C[C@H]1/C=C\CCCCC[C@H](NC(=O)OC(C)(C)C)C(=O)N1C[C@H](OC(=O)N3Cc4ccc(OCCNC(C)C)cc4C3)C[C@H]1C(=O)N2 [Compound 125]
pIC50: > 5.00

CC(C)(C)OC(=O)NC1CCCCCCCC=CC2CC2(C(=O)NS(=O)(=O)c2cc(Cl)cc(Cl)c2)NC(=O)C2CCCN2C1=O (stereo not drawn) [Compound 2108]
pIC50: > 5.00

CC(C)(C)OC(=O)N[C@H]1CCCCC/C=C\[C@@H]2C[C@@]2(C(=O)NS(=O)(=O)c2cnc(Cl)c(Br)c2)NC(=O)[C@@H]2CCCN2C1=O [Compound 2154]
pIC50: > 5.00

CCOC(=O)[C@@]12C[C@H]1/C=C\CCCCC[C@H](N)C(=O)N1C[C@H](OC(=O)N3Cc4ccc(OCCN5CCOCC5)cc4C3)C[C@H]1C(=O)N2 [Compound 126]
pIC50: < 5.00

CC(C)(C)OC(=O)N[C@H]1CCCCC/C=C\[C@@H]2C[C@@]2(C(=O)N[S@+]([O-])C(C)(C)C)NC(=O)[C@@H]2CCCN2C1=O [Compound 2404]
pIC50: > 6.00

CN(c1cccc(Cl)c1)S(=O)(=O)NC(=O)[C@@]12C[C@H]1/C=C\CCCCC[C@H](NC(=O)OC(C)(C)C)C(=O)N1CCC[C@H]1C(=O)N2 [Compound 404]
pIC50: > 5.00

CC(C)(C)OC(=O)N[C@H]1CCCCC/C=C\[C@@H]2C[C@@]2(C(=O)NS(=O)(=O)c2ccccc2Br)NC(=O)[C@@H]2CCCN2C1=O [Compound 2111]
pIC50: > 5.00

C=CCN(C)S(=O)(=O)NC(=O)[C@@]12C[C@H]1/C=C\CCCCC[C@H](NC(=O)OC(C)(C)C)C(=O)N1CCC[C@H]1C(=O)N2 [Compound 412]
pIC50: > 5.00

C[C@H](NS(=O)(=O)NC(=O)[C@@]12C[C@H]1/C=C\CCCCC[C@H](NC(=O)OC(C)(C)C)C(=O)N1CCC[C@H]1C(=O)N2)c1ccccc1 [Compound 416]
pIC50: > 5.00

CC1CCCC(C)N1S(=O)(=O)NC(=O)[C@@]12C[C@H]1/C=C\CCCCC[C@H](NC(=O)OC(C)(C)C)C(=O)N1CCC[C@H]1C(=O)N2 (stereo partly drawn) [Compound 2223]
pIC50: > 6.00

CC(C)(C)OC(=O)N[C@H]1CCCCC/C=C\[C@@H]2C[C@@]2(C(=O)NS(=O)(=O)C2CCCC2)NC(=O)[C@@H]2CCCN2C1=O [Compound 2120]
pIC50: > 6.00

CC(C)(C)OC(=O)N[C@H]1CCCCC/C=C\[C@@H]2C[C@@]2(C(=O)NS(=O)(=O)C(C)(C)C)NC(=O)[C@@H]2CCCN2C1=O [Compound 303]
pIC50: < 5.00

CC(C)(C)OC(=O)N[C@H]1CCCCC/C=C\[C@@H]2C[C@@]2(C(=O)NS(=O)(=O)Nc2ccc(C(F)(F)F)cc2)NC(=O)[C@@H]2CCCN2C1=O [Compound 2235]
pIC50: > 6.00

CC(C)(C)OC(=O)N[C@H]1CCCCC/C=C\[C@@H]2C[C@@]2(C(=O)NS(=O)(=O)NC2CCCCC2)NC(=O)[C@@H]2CCCN2C1=O [Compound 2205]
pIC50: > 6.00

CC(C)(C)OC(=O)N[C@H]1CCCCC/C=C\[C@@H]2C[C@@]2(C(=O)NS(=O)(=O)c2cccc3c(Cl)cccc23)NC(=O)[C@@H]2CCCN2C1=O [Compound 309]
pIC50: > 5.00

COC[C@H]1CCCN1S(=O)(=O)NC(=O)[C@@]12C[C@H]1/C=C\CCCCC[C@H](NC(=O)OC(C)(C)C)C(=O)N1CCC[C@H]1C(=O)N2 [Compound 2251]
pIC50: > 7.00

COc1c(C(=O)O)csc1S(=O)(=O)NC(=O)[C@@]12C[C@H]1/C=C\CCCCC[C@H](NC(=O)OC(C)(C)C)C(=O)N1CCC[C@H]1C(=O)N2 [Compound 311]
pIC50: > 5.00
